Test results: ChEMBL document CHEMBL4732045, “Amide Bond Bioisosteres: Strategies, Synthesis, and Successes” (J Med Chem, 2020)
Square brackets hold non-standard residues; d marks the D form. Peptide text beside a SMILES is read from it. PhLac = O=C(O)[C@@H](O)Cc1ccccc1

Columns and labels:
MDA-MB-231 = assay: Antiproliferative activity against human MDA-MB-231 cells; assay type: functional, cell-based
Mus musculus [1] = assay: Immunosuppressive activity in B6D2F1 mouse model of graft-versus-host disease assessed as mean survival days at 3 mg/kg, ip administered for day 1 to day 10 (day 6 omitted) and measured at day 60; assay type: functional; details: time 60 day
Mus musculus [2] = assay: Immunosuppressive activity in B6D2F1 mouse model of graft-versus-host disease assessed as mean survival days at 1 mg/kg, ip administered for day 1 to day 10 (day 6 omitted) and measured at day 60; assay type: functional; details: time 60 day
Rattus norvegicus = assay: Immunosuppressive activity in Lewis rat model of Heart Allotransplantation assessed as mean survival days at 6 mg/kg, ip administered for 10 days by Manntel-Haenszel test; assay type: functional; details: time 10 day
CAKI-2 = assay: Cytotoxicity against human Caki-2 cells incubated for 96 hrs by MTT assay; assay type: functional, cell-based; details: CAKI-2, 96 h
HT-29 = assay: Cytotoxicity against human HT-29 cells incubated for 96 hrs by MTT assay; assay type: functional, cell-based; details: HT-29, 96 h
A549 = assay: Cytotoxicity against human A549 cells incubated for 96 hrs by MTT assay; assay type: functional, cell-based; details: A549, 96 h
PC-3 = assay: Cytotoxicity against human PC-3 cells incubated for 96 hrs by MTT assay; assay type: functional, cell-based; details: PC-3, 96 h
HL-60 = assay: Cytotoxicity against human HL-60 cells incubated for 96 hrs by MTT assay; assay type: functional, cell-based; details: HL-60, 96 h
[3] = biological target: T1, Human immunodeficiency virus type 1 protease (Human immunodeficiency virus 1, UniProt Q72874); assay: Inhibition of HIV-1 protease
[4] = Inhibition of ACAT in cholesterol-fed New Zealand rabbit intestional microsomes using [1-14C]oleoyl-CoA as substrate preincubated for 5 mins followed by substrate addition and measured after 5 mins by liquid scintillation counting method; parameters: species or system Oryctolagus cuniculus, Intestine, Microsome
[5] = biological target: Delta-type opioid receptor (Mus musculus, UniProt P32300); assay: Inhibition of [3H]-Deltorphin 2 binding to mouse delta opioid receptor expressed in rat GH3 cell membranes by Cheng-Prusoff analysis; parameters: species or system Cell membrane
HMEC-1 = assay: Growth inhibition of HMEC-1 incubated for 4 days by Coulter counter method; assay type: cell-based; details: Homo sapiens, HMEC-1, 96 h
[6] = Growth inhibition of BAEC incubated for 3 days by Coulter counter method; details: Bos taurus, 72 h
HeLa = assay: Antiproliferative activity against human HeLa cells incubated for 4 days by Coulter counter method; assay type: functional, cell-based; details: 96 h
CCRF-CEM = assay: Antiproliferative activity against human CEM cells incubated for 96 hrs by Coulter counter method; assay type: functional, cell-based
L1210 = assay: Antiproliferative activity against mouse L1210 cells incubated for 48 hrs by Coulter counter method; assay type: functional, cell-based; details: L1210, 48 h
[7] = tested on: Poly(dA-dT)oligonucleotide; assay: Binding affinity to poly (dA-dT) (unknown origin) by ethidium displacement assay; assay type: nucleic-acid assay
[8] = tested on: Poly(dG-dC)oligonucleotide; assay: Binding affinity to poly (dG-dC) (unknown origin) by ethidium displacement assay; assay type: nucleic-acid assay
Neprilysin = Neprilysin (Homo sapiens, UniProt P08473); assay: Inhibition of NEP 24.11 (unknown origin) by fluorometric assay
[9] = Inhibition of HIV2 protease; parameters: species or system Human immunodeficiency virus 2
[10] = tested on: Human immunodeficiency virus 1; assay: Antiviral activity against HIV1 3b isolate infected in human MT4 cells assessed as blockade of viral spread pretreated for 24 hrs followed by viral infection and subsequently treated with compound every 2 to 3 days post infection by ELISA; assay type: functional; details: Human immunodeficiency virus 1, 3b isolate, read-out: CIC95
[11] = biological target: T1, Human immunodeficiency virus type 1 protease; assay: Inhibition of HIV1 protease
Interstitial collagenase = Interstitial collagenase (Homo sapiens, UniProt P03956); assay: Inhibition of PMA-induced human skin fibroblast derived MMP1 by fluorometric assay; assay type: tissue-based
[12] = biological target: 72 kDa type IV collagenase (Homo sapiens, UniProt P08253); assay: Inhibition of TNF-induced MMP2 isolated from human HT-1080 cell medium by fluorometric assay; assay type: tissue-based
Stromelysin-1 = Stromelysin-1 (Homo sapiens, UniProt P08254); assay: Inhibition of human MMP3 by fluorometric assay
Matrilysin = Matrilysin (Homo sapiens, UniProt P09237); assay: Inhibition of human MMP7 by fluorometric assay
[13] = Half life in monkey at 10 mg/kg, po; assay type: ADME, organism-based, Macaca mulatta; details: rhesus monkey, in vivo
[14] = Oral bioavailability in monkey at 10 mg/kg; assay type: ADME, organism-based, Macaca mulatta; details: rhesus monkey, in vivo
[15] = Selectivity index, ratio of Ki for human CB1 receptor expressed in HEK cells to Ki for human CB2 receptor expressed in HEK cells
Cannabinoid receptor 1 = Cannabinoid receptor 1 (Homo sapiens, UniProt P21554); assay: Displacement of [3H]CP-55940 from human CB1 receptor expressed in HEK cells by competitive binding assay; assay type: cell-based
Cannabinoid receptor 2 = Cannabinoid receptor 2 (Homo sapiens, UniProt P34972); assay: Displacement of [3H]CP-55940 from human CB2 receptor expressed in HEK cells by competitive binding assay; assay type: cell-based
[16] = biological target: D(2) dopamine receptor (Bos taurus) (UniProt P20288); assay: Modulation of [3H]Spiroperidol/N-Propylnorapomorphine binding to dopamine D2 receptor in bovine striatal membranes incubated for 1 hr by Cheng-Prusoff analysis; assay type: cell membranes; details: Striatum, Membrane, filed as modulator
[17] = biological target: D(2) dopamine receptor (Bos taurus) (UniProt P20288); assay: Modulation of [3H]Spiroperidol/N-Propylnorapomorphine binding to dopamine D2 receptor in bovine striatal membranes incubated for 1 hr in presence of Gpp(NH)p by Cheng-Prusoff analysis; assay type: cell membranes; details: Striatum, Membrane, filed as modulator

Chain of D(2) dopamine receptor (Bos taurus) (P20288 whole entry): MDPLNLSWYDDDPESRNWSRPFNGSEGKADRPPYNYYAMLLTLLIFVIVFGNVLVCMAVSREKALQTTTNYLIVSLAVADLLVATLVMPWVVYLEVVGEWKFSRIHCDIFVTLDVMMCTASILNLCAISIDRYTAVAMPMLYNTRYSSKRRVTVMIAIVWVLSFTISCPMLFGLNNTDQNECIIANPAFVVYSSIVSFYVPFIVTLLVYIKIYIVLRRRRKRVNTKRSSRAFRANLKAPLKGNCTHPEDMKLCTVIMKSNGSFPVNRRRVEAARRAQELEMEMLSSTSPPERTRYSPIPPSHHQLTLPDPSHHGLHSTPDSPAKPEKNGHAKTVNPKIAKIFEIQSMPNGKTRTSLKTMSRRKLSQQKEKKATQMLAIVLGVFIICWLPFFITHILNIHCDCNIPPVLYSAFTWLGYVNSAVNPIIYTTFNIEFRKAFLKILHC
Chain of Delta-type opioid receptor (P32300 whole entry): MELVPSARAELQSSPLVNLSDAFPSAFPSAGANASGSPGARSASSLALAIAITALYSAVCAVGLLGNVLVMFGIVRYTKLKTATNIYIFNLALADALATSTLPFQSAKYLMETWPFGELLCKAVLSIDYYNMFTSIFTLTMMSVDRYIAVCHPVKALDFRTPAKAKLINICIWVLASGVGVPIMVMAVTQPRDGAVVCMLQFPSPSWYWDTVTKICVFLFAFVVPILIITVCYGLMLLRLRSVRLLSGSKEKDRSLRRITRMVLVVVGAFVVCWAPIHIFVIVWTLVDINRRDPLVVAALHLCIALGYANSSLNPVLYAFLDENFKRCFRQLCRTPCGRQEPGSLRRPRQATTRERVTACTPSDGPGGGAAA
Chain of Cannabinoid receptor 2 (P34972 whole entry): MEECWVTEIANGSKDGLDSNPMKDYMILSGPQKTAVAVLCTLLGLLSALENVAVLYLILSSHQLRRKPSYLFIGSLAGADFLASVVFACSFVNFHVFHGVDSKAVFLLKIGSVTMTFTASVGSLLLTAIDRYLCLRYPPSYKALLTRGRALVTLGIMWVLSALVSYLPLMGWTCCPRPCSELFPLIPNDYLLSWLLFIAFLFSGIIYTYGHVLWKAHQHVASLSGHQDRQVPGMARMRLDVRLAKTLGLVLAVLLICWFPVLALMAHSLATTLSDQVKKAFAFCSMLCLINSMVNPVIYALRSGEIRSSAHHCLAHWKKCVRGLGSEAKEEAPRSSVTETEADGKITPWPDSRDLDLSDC
Chain of Cannabinoid receptor 1 (P21554 whole entry): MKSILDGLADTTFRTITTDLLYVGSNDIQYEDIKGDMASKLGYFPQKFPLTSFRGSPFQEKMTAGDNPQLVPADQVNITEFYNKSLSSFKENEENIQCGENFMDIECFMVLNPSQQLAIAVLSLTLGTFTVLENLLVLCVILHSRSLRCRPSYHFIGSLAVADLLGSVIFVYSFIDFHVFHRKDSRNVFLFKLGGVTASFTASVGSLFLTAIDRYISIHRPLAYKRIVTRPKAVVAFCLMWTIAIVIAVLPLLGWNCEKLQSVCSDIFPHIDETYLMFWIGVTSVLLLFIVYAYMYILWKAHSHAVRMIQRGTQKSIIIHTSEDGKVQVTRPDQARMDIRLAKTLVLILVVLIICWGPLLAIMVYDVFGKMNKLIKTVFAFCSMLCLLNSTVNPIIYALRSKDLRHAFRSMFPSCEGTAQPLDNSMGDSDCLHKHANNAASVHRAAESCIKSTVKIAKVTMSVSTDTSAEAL
Chain of Stromelysin-1 (P08254 whole entry): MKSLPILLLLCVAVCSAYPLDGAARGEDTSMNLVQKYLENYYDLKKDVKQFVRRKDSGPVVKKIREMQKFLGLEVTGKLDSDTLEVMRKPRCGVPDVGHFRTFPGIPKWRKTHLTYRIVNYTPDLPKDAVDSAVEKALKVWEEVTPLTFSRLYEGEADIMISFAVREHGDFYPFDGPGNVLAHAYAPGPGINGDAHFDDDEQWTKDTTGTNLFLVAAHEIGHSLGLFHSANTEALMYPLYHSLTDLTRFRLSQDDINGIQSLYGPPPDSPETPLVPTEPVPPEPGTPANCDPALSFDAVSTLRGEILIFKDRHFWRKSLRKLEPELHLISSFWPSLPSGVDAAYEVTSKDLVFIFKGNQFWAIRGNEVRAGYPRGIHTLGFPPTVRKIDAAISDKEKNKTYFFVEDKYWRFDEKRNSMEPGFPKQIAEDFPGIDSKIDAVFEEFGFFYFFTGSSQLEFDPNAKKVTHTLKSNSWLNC
Chain of 72 kDa type IV collagenase (P08253 whole entry): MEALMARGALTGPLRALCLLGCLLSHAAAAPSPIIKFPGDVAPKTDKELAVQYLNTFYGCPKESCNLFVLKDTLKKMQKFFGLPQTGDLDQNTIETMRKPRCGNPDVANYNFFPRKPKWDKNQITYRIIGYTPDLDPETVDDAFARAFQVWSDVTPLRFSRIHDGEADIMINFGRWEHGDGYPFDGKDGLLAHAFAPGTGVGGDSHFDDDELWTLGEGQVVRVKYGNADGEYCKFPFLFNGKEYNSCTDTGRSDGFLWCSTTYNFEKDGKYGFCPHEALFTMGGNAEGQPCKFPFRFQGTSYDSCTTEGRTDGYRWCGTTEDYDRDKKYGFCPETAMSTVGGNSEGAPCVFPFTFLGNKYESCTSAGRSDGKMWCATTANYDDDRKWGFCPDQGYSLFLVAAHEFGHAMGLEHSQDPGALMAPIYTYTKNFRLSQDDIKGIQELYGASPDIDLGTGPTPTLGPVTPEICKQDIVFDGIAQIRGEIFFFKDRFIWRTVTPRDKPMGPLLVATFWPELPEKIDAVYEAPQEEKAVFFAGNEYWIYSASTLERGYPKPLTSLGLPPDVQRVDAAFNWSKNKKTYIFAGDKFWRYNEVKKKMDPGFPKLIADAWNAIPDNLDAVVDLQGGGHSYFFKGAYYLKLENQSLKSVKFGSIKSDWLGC
Chain of Neprilysin (P08473 whole entry): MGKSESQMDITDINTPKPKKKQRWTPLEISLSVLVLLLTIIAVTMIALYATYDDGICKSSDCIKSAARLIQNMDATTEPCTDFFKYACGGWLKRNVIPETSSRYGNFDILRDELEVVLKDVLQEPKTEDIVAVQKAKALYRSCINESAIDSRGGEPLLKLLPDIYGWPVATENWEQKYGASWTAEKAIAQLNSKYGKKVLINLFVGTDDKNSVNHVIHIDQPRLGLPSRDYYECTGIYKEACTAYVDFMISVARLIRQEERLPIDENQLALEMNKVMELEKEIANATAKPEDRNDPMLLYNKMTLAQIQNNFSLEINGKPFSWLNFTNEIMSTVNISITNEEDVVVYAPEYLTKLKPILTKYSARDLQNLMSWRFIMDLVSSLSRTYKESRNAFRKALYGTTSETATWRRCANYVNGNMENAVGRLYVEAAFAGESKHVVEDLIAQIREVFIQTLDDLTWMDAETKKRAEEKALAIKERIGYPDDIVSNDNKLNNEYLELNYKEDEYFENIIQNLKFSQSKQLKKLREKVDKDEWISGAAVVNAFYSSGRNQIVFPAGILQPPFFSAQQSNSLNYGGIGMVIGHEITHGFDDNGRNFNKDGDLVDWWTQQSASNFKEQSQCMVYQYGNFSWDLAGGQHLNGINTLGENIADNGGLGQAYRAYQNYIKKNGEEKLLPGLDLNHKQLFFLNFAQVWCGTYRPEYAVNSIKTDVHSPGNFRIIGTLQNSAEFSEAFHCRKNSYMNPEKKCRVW
Chain of Interstitial collagenase (P03956 whole entry): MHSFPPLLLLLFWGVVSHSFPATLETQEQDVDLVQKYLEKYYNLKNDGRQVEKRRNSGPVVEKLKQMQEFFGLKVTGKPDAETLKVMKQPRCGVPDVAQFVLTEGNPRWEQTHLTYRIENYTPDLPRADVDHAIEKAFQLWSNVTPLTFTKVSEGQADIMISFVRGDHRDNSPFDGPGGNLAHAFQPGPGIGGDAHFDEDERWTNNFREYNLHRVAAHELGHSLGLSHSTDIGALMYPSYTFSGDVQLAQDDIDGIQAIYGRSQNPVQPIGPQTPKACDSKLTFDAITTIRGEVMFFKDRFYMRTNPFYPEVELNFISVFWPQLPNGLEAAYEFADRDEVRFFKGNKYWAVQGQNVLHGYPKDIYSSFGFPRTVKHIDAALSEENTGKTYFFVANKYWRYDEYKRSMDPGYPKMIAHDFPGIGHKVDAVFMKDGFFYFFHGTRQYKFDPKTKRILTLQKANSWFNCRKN
Chain of Matrilysin (P09237 whole entry): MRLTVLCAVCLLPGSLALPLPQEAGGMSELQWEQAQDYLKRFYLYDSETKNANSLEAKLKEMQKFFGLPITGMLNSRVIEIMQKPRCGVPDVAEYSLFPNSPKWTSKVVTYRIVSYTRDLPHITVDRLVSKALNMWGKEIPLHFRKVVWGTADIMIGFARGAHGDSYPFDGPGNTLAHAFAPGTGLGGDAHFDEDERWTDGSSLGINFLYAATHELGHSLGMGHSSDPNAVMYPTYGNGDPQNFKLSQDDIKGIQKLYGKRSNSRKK

O=S(=O)(NCc1ccc2c(c1)OCO2)c1ccccc1
IC50 (MDA-MB-231): 14200 nM

N=C(N)NCCCCCCC(=O)NC(O)C(=O)NCCCCNCCCN (stereo unspecified)
Survival (Mus musculus [1]): 57 days | Survival (Mus musculus [2]): 38 days | Survival (Rattus norvegicus): 38 days

CCCCCCCCCCCCNC(=O)N[C@@H](CO)[C@H](O)c1ccc([N+](=O)[O-])cc1
IC50 (CAKI-2): 80000 nM | IC50 (HT-29): 55000 nM | IC50 (A549): 60000 nM | IC50 (PC-3): 36000 nM | IC50 (HL-60): 30000 nM

CCN(C(C)C)S(=O)(=O)CC[C@@H]1O[C@@H]1[C@H](Cc1ccccc1)NC(=O)[C@H](CC(C)(C)S(C)(=O)=O)NC(=O)c1ccc2ccccc2n1
IC50 [3]: 6.6 nM

CCCCCCCCCCCCCCCCCNC(=O)Nc1c(OC)cc(OC)cc1OC
IC50 [4]: 320 nM

CC(C)C[C@H](NC(=O)[C@H](Cc1ccccc1)OC(=O)CNC(=O)CNC(=O)[C@@H](N)Cc1ccc(O)cc1)C(=O)O (H-YGG[PhLac]L-OH)
Ki [5]: 34 nM

COC(=O)c1ccc(-c2cn(-c3cccc(-c4ccccc4)c3)nn2)cc1
IC50 (HMEC-1): 620 nM | IC50 [6]: 420 nM | IC50 (HeLa): 1100 nM | IC50 (CCRF-CEM): 920 nM | IC50 (L1210): 1100 nM

CC(C)C[C@H](NC(=O)[C@H](Cc1ccccc1)N/C=C/NC(=O)CNC(=O)[C@@H](N)Cc1ccc(O)cc1)C(=O)O
Ki [5]: 587 nM

O=C(OCc1ccc2c(c1)OCO2)c1ccc(Cl)c(Cl)c1
IC50 (MDA-MB-231): ≥ 200000 nM

NCCCNCCCCNC(=O)CC(=O)NCCCCCCN=C(N)N
Survival (Mus musculus [1]): 52 days | Survival (Mus musculus [2]): 53 days | Survival (Rattus norvegicus): 9 days

CN(C)CCCNC(=O)c1cc(NC(=O)c2cc(NC(=O)c3cc([N+](=O)[O-])cn3C)cn2C)cn1C
Kapp [7]: 8.7 10^5/M | Kapp [8]: 3.5 10^5/M

O=C(O)CC(=O)N[C@H](CS)Cc1ccccc1
Ki (Neprilysin): 210 nM

CC(C)(C)NC(=O)[C@@H]1C[C@@H]2CCCC[C@@H]2CN1C[C@@H](O)[C@H](Cc1ccccc1)NC(=O)[C@@H](NC(=O)c1ccc2ccccc2n1)[C@@H]1CCOC1
IC50 [9]: 0.24 nM | IC95 [10]: 8 nM

CC(C)c1cccc(C(C)C)c1NC(=O)NCCCCCc1ccccc1
IC50 [4]: 17 nM

Cn1cc(NC(=O)c2cc(NC(=O)c3cc(NC=O)cn3C)cn2C)cc1C(=O)NCCC(=N)N
Kapp [7]: 345 10^5/M | Kapp [8]: 1.3 10^5/M

O=C(N[C@@H](Cc1ccccc1)[C@@H](O)C[C@@H](Cc1ccccc1)C(=O)N[C@H]1c2ccccc2C[C@H]1O)O[C@H]1CCOC1
IC95 [10]: 3 nM | IC50 [11]: < 0.03 nM

C=CC[C@H](C(=O)NO)[C@@H](CC(C)C)C(=O)N[C@H](C(=O)NC)C(C)(C)C
IC50 (Interstitial collagenase): 1.1 nM | IC50 [12]: 0.85 nM | IC50 (Stromelysin-1): 10 nM | IC50 (Matrilysin): 11 nM | half-life [13]: 27 h | bioavailability [14]: 15%

N=C(N)NCCCCCCNC(=O)COC(=O)NCCCCNCCCN
Survival (Mus musculus [1]): 58 days | Survival (Mus musculus [2]): 46 days | Survival (Rattus norvegicus): 54 days

CCCCCn1cc(-c2nc(C34CC5CC(CC(C5)C3)C4)no2)c(=O)c2cc(-c3ccco3)ccc21
Ratio Ki [15]: >82 | Ki (Cannabinoid receptor 1): 33 nM | Ki (Cannabinoid receptor 2): 0.4 nM

CS(=O)(=O)c1ccc(-c2cn(-c3ccc(Cl)c(-c4ccccn4)c3)nn2)c(Cl)c1
IC50 (HMEC-1): 9600 nM | IC50 [6]: 40000 nM | IC50 (HeLa): > 100000 nM | IC50 (CCRF-CEM): 50000 nM | IC50 (L1210): 82000 nM

NC(=O)[C@H]1CS[C@@H]2C[C@@H](N3CC(=O)N4CCC[C@H]4C3=O)C(=O)N12
KiH [16]: 0.098 nM | KiL [16]: 171 nM | KiH [17]: 0.14 nM | KiL [17]: 183 nM

CCCCCn1cc(-c2nnc(C34CC5CC(CC(C5)C3)C4)o2)c(=O)c2cc(-c3ccco3)ccc21
Ratio Ki [15]: >1543 | Ki (Cannabinoid receptor 1): > 10000 nM | Ki (Cannabinoid receptor 2): 6.5 nM
